Laboratory results taken from patent US20130023555A1, “KINASE INHIBITOR WITH IMPROVED SOLUBILITY PROFILE” (Abbott Laboratories, priority 2011, published 2013).
≈ marks a conversion by molar mass, not a printed value.

How the values were obtained:
[1] = molecular target: T1, CSF1R (Homo sapiens, UniProt P07333); experiment: HTRF in vitro kinase assay, CSF1R; format: biochemical; details: 1 mM ATP
T1 construct: CSF-1R Q547- C972; M-His(6) (N)
T1 sequence (P07333 547-972): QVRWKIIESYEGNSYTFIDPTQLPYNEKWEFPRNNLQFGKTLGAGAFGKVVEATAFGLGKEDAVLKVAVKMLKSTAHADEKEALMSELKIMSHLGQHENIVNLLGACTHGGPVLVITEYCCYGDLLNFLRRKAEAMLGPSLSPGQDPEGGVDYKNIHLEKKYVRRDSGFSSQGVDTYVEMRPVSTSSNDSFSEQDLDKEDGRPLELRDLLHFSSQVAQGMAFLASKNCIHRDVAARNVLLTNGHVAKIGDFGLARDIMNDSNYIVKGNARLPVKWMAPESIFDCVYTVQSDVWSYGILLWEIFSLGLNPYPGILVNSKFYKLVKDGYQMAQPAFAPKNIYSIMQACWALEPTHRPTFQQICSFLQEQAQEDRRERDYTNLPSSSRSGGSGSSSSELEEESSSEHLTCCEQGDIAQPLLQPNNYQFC
Experimental: (§1) To determine the activity of the various kinases, a homogenous time-resolved fluorescence (HTRF) in vitro kinase assay was used. (Mathis, G., HTRF(R) Technology. J Biomol Screen, 1999. 4(6): p. 309-314; Alfred J. Kolb, Paul V. Kaplita, David J. Hayes, Young-Whan Park, Christine Pernell, John S. Major and Gerard Mathis, Drug Discovery Today, 1998, 3, 333-342.)
For example for KDR, cKIT, FLT1, CSF1R and FTL3, purified enzyme was mixed with 0.5 μM N-biotinylated substrate (Biotin-Ahx-[…]-amide (SEQ. ID. 1)), various concentrations of inhibitor in reaction buffer (50 mM HEPES, pH 7.1, 10 mM MgCl2, 2 mM MnCl2, 0.1% BSA and 1 mM DTT, 40 μL final volume), ATP (1 mM final conc.) in a black 384-well plate. […] The quenched reaction was allowed to stand at room temperature for 3 hours and was then read in a time-resolved fluorescence detector (InVision, Perkin-Elmer) at 620 nm and 665 nm sequentially with excitation. The ratio between the signal of 620 nm and 665 nm was used in the calculation of the IC50.

[2] = molecular target: T2, cKIT (Homo sapiens, UniProt P10721); experiment: HTRF in vitro kinase assay, cKIT; format: biochemical; details: 1 mM ATP
T2 construct: GST
Experimental: as §1
For example for KDR, cKIT, FLT1, CSF1R and FTL3, purified enzyme was mixed with 0.5 μM N-biotinylated substrate (Biotin-Ahx-[…]-amide (SEQ. ID. 1)), various concentrations of inhibitor in reaction buffer (50 mM HEPES, pH 7.1, 10 mM MgCl2, 2 mM MnCl2, 0.1% BSA and 1 mM DTT, 40 μL final volume), ATP (1 mM final conc.) in a black 384-well plate. After 60 minutes incubation at room temperature, the reaction was quenched by addition of a buffered EDTA solution (final approximate concentrations: 30 mM EDTA, 0.1% BSA, 0.1% Triton X-100 and 0.24M KF) and a solution of revelation agents (to give 0.084 ng/well streptavidin-XL-665 (Cis-Bio) and 6.5 ng/well antiphsophotyrosine mAb PT66-K Europium kryptate) was added to the reaction mixture. The quenched reaction was allowed to stand at room temperature for 3 hours and was then read in a time-resolved fluorescence detector (InVision, Perkin-Elmer) at 620 nm and 665 nm sequentially with excitation. The ratio between the signal of 620 nm and 665 nm was used in the calculation of the IC50.

[3] = molecular target: T3, Aurora B (Homo sapiens, UniProt Q96GD4); experiment: Aurora B enzyme assay (time-resolved fluorescence); format: biochemical; details: 1 mM ATP, with INCENP
T3 construct: Active Aurora B enzyme (recombinant residues 1-344)
Experimental: After 1 hour, the reaction was stopped with EDTA and anti-phospho-histone H3 Europium Cryptate (Cis-Bio) and SA-APC (Phycolink, Prozyme) were added to detect the phosphopeptide. The amount of phosphorylation was determined by the time-resolved fluorescence ratio of signals at 665 nm and 615 nm. The IC50's were calculated by an exponential fit of the inhibition values with the inhibitor concentrations using Assay Explorer software.

[4] = Determination of Thermodynamic Solubility; format: physicochemical; details: PEG 300, 25 °C, organic solvent or mixture, thermodynamic from solid, PEG 300, Example 2 at 25° C., Example 1 at ambient temperature, read-out: Solubility (PEG300)
Experimental: Aqueous pH 7.4 and PEG 300 samples were tested at 25° C. Excess amount of the bulk drug was weighed out and mixed with an aliquot of target media in a clear glass vial (n=3/solvent). The vial was capped, wrapped with aluminum foil, and tumbled in a 25° C. water bath. When equilibration was completed, the samples were removed from the water bath and the final pH was measured, if applicable. The samples were centrifuged at 25° C. at 3000 rpm for 20 minutes. The supernatant was filtered through 4 mm 0.45 μm PTFE syringe filters. The filtrate was assayed after appropriate dilution (no dilution required for aqueous samples). The concentration of the sample was calculated against a calibration curve for the compound.
Solubility in pH 7.4 buffer was carried out as described above, except samples were not centrifuged before filtration. All other experimental steps were the same. PEG 300 and PEG 400 solubility were done at ambient temperature. Excess amount of the bulk drug was weighed out and mixed with an aliquot of target media in a clear glass vial with a small stir bar (n=3). The vials were placed on the stirrer at ˜500 rpm and allowed to equilibrate over the weekend. Samples were filtered through 13 mm 0.45 μm GHP syringe filters. The filtrate was assayed after appropriate dilutions, and concentrations determined against a calibration curve for the compound.

T3 sequence (Q96GD4 whole entry, the tested form may be a part): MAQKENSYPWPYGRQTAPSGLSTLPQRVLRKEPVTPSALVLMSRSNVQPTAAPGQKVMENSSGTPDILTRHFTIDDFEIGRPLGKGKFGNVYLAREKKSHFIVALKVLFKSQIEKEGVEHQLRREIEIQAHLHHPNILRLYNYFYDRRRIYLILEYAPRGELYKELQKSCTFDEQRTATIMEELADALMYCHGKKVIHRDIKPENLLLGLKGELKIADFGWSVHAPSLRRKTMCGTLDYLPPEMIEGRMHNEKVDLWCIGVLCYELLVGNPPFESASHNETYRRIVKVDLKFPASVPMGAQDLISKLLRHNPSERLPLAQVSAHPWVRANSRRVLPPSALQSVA
T3 sequence (Q9NQS7 803-918 partner limits assumed): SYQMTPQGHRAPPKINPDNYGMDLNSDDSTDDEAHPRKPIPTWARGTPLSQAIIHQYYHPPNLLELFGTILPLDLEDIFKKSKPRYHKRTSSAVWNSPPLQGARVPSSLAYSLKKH
T2 sequence (P10721 544-976 limits assumed): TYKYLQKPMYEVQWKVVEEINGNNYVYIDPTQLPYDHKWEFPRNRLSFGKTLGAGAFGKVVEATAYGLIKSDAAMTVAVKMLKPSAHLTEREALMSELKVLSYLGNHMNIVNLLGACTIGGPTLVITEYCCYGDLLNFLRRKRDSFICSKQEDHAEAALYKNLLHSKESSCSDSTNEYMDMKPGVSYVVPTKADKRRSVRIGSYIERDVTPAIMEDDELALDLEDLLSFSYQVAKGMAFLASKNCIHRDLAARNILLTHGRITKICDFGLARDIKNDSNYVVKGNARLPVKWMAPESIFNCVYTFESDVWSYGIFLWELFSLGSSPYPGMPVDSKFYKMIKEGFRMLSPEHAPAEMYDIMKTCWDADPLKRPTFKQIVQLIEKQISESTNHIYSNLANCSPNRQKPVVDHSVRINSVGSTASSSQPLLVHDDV

CNC(=O)c1cnc(N)c2c(-c3ccc(NC(=O)Nc4cccc(C)c4)cc3)csc12 [Example 2, 4-amino-N-methyl-3-(4-{[(3-methylphenyl)carbamoyl]amino}phenyl)thieno[3,2-c]pyridine-7-carboxamide]
IC50 [1]: 3 nM
IC50 [2]: 6 nM
IC50 [3]: 1.3 nM
solubility [4]: 8400 µg/mL (≈ 19.5 mM)
